Measurements as given in ChEMBL document CHEMBL1128401, “Structure-activity relationships in the 8-amino-6,7,8,9-tetrahydro-3H-benz[e]indole ring system. 1. Effects of substituents in the aromatic system on serotonin and dopamine receptor subtypes” (J Med Chem, 1995).
Blank lines part the entries; values can stand above or below the molecule they belong to. Activity calls are given as the source filed them. The rule behind the calls is not given here.

What was measured:
[1] = tmax in hours at a iv dose of 4.0(pmol/g/h).; format: ADME, organism-based; conditions: in vivo
Rattus norvegicus [2] = test: Bioavailability in male Sprague-Dawley rats, after the iv administration at a dose of 4.0(pmol/g/h); format: ADME, organism-based; conditions: in vivo
Rattus norvegicus [3] = test: Bioavailability in male Sprague-Dawley rats, after the po administration at a dose of 10.0(pmol/g/h); format: ADME, organism-based; conditions: in vivo
[4] = Bioavailability in rat plasma following iv/po dose; format: ADME, organism-based
Rattus norvegicus [5] = test: The Compound was tested in vivo for DOPA accumulation in hemispheres (cortex) against reserpine-pretreated rats; I= inactive at the highest dose tested (12.5).; format: functional, organism-based
[6] = tmax in hours at a po dose of 10.0(pmol/g/h).; format: ADME, organism-based; conditions: in vivo, 10 pmol/g/h
[7] = Ratio of the 5-HTP accumulation decrease in limbic regions after oral and subcutaneous administration in rat.; format: functional, Limbic system
[8] = Rat bioavailability after iv/po administration, expressed as %; format: ADME, organism-based; conditions: in vivo
[9] = tmax in hours at a iv dose of 5.0(pmol/g/h).; format: ADME, organism-based; conditions: in vivo
D(2) dopamine receptor [10] = target: T1, D(2) dopamine receptor (Rattus norvegicus, UniProt P61169); test: Binding affinity against Dopamine receptor D2 expressed in CHO-K1 cells, using [3H]U-86170 as the radioligand.; format: cell-based
T1 sequence (P61169 whole entry): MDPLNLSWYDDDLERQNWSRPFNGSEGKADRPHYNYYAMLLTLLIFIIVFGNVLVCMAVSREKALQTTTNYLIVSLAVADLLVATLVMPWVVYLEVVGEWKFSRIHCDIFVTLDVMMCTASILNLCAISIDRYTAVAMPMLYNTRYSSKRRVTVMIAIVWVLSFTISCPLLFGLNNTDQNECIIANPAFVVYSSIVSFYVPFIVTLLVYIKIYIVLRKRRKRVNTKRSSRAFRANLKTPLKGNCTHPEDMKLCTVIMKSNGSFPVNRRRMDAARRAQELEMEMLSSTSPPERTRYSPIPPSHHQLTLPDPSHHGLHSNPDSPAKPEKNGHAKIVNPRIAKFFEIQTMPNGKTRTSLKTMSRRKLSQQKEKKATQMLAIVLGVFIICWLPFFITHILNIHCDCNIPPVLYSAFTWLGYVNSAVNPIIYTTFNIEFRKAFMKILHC

[11] = target: 5-hydroxytryptamine receptor 1D (Homo sapiens, UniProt P28221); test: Binding affinity against 5-hydroxytryptamine 1D receptor alpha expressed in CHO-K1 cells, using [3H]-5-HT as the radioligand.; format: cell-based
Chain of 5-hydroxytryptamine receptor 1D (P28221 whole entry): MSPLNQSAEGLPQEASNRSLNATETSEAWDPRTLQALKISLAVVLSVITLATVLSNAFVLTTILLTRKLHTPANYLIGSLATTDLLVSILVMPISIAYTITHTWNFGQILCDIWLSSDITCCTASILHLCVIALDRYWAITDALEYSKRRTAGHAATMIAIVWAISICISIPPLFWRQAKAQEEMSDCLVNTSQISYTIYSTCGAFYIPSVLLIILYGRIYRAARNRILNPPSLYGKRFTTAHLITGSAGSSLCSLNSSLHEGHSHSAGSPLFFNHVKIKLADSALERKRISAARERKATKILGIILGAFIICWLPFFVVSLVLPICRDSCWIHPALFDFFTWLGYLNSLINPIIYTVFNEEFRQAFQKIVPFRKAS

Rattus norvegicus [12] = test: Bioavailability in male Sprague-Dawley rats, after the iv administration at a dose of 5.0(pmol/g/h); format: ADME, organism-based; conditions: in vivo
[13] = target: T2, 5-hydroxytryptamine receptor 1A (Rattus norvegicus, UniProt P19327); test: Binding affinity against 5-hydroxytryptamine 1A receptor from CHO-K1 cells, using [3H]8-OH-DPAT as the radioligand.; format: cell-based
T2 sequence (P19327 whole entry): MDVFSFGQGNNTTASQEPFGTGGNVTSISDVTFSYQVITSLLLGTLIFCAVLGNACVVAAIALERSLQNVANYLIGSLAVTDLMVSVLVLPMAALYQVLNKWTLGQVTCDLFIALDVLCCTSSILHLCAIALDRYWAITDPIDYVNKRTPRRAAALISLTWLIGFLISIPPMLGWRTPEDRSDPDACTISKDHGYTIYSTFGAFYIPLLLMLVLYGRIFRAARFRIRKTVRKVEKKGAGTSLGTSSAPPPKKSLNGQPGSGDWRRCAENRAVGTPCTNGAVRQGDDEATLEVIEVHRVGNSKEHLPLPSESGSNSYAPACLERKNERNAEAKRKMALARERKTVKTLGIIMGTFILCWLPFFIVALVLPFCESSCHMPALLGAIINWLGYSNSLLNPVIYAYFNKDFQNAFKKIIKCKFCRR

D(3) dopamine receptor [14] = target: T3, D(3) dopamine receptor (Rattus norvegicus, UniProt P19020); test: Binding affinity against Dopamine receptor D3 expressed in CHO-K1 cells, using [3H]spiperone as the radioligand.; format: cell-based
T3 sequence (P19020 whole entry): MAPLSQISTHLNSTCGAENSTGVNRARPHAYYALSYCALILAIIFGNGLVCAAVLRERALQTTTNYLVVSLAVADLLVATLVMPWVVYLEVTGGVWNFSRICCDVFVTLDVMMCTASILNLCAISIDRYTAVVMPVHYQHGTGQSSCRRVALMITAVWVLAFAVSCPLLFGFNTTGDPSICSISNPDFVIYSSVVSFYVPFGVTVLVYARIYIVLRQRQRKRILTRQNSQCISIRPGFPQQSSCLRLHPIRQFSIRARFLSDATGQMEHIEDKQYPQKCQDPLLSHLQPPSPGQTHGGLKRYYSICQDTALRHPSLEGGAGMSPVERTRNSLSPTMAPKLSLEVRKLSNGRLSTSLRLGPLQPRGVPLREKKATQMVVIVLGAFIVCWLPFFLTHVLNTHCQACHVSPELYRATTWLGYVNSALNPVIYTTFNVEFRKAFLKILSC

[15] = tmax in hours at a po dose of 40.0(pmol/g/h).; format: ADME, organism-based; conditions: in vivo
Rattus norvegicus [16] = test: The Compound was tested in vivo for DOPA accumulation in hemispheres (cortex) against reserpine-pretreated rats; P=significant partial reduction only at the highest dose tested (12.5).; format: functional, organism-based
[17] = target: 5-hydroxytryptamine receptor 1B (Homo sapiens, UniProt P28222); test: Binding affinity against 5-hydroxytryptamine 1D receptor beta expressed in CHO-K1 cells, using [3H]5-HT as the radioligand.; format: cell-based
Chain of 5-hydroxytryptamine receptor 1B (P28222 whole entry): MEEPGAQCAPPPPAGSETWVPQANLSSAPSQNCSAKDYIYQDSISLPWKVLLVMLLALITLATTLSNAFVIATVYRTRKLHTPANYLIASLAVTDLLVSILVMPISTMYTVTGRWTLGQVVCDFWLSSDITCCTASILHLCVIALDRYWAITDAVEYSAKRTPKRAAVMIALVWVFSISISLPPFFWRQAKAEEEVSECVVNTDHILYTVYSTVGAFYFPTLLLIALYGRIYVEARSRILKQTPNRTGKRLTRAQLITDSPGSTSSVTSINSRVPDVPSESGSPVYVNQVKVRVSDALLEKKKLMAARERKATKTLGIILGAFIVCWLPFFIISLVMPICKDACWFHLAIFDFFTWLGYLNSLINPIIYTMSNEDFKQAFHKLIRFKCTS

Rattus norvegicus [18] = test: Bioavailability in male Sprague-Dawley rats, after the po administration at a dose of 40.0(pmol/g/h); format: ADME, organism-based; conditions: in vivo
Rattus norvegicus [19] = test: The Compound was tested in vivo for DOPA accumulation in hemispheres (cortex) against reserpine-pretreated rats;I= inactive at the highest dose tested (50).; format: functional, organism-based
Rattus norvegicus [20] = test: Compound was tested in vivo for 5-HTP accumulation in limbic system against reserpine-pretreated rats;P= significant partial reduction only at the highest dose tested (50).; format: functional, organism-based
Rattus norvegicus [21] = test: The Compound was tested in vivo for DOPA accumulation in limbic system against reserpine-pretreated rats; P=significant partial reduction only at the highest dose tested (50).; format: functional, organism-based
Rattus norvegicus [22] = test: Compound was tested in vivo for 5-HTP accumulation in corpus striatum against reserpine-pretreated rats;I= inactive at the highest dose tested (50).; format: functional, organism-based
Rattus norvegicus [23] = test: Compound was tested in vivo for DOPA accumulation in corpus striatum against reserpine-pretreated rats;P= significant partial reduction only at the highest dose tested (50).; format: functional, organism-based
Rattus norvegicus [24] = test: Compound was tested in vivo for 5-HTP accumulation in hemispheres (cortex) against reserpine-pretreated rats;I= inactive at the highest dose tested (50).; format: functional, organism-based
Rattus norvegicus [25] = test: compound was tested in vivo for DOPA accumulation in corpus striatum against reserpine-pretreated rats; format: functional
Rattus norvegicus [26] = test: The compound was tested in vivo for DOPA accumulation in hemispheres (cortex) against reserpine-pretreated rats;I= inactive at the highest dose tested; format: functional, organism-based
D(3) dopamine receptor [27] = target: T3, D(3) dopamine receptor; test: Binding affinity against Dopamine receptor D3 from CHO-K1 cells, using [3H]spiperone as the radioligand.; format: cell-based; conditions: read-out: Ki
[28] = tmax in hours at a iv dose of 54.0(pmol/g/h).; format: ADME, organism-based; conditions: in vivo
Rattus norvegicus [29] = test: In vivo for DOPA accumulation in corpus striatum against reserpine-pretreated rats.; format: functional
Rattus norvegicus [30] = test: In vivo for 5-HTP accumulation in limbic system against reserpine-pretreated rats.; format: functional
Rattus norvegicus [31] = test: In vivo for DOPA accumulation in limbic system against reserpine-pretreated rats.; format: functional
D(2) dopamine receptor [32] = target: T1, D(2) dopamine receptor; test: Binding affinity against Dopamine receptor D2 from CHO-K1 cells, using [3H]U-86,170 as the radioligand.; format: cell-based
[33] = tmax in hours at a dose of 10.0(pmol/g/h).; format: ADME
Rattus norvegicus [34] = test: In vivo for 5-HTP accumulation in corpus striatum against reserpine-pretreated rats.; format: functional
Rattus norvegicus [35] = test: Bioavailability in male Sprague-Dawley rats, after the iv administration at a dose of 54.0(pmol/g/h); format: ADME, organism-based; conditions: in vivo
Rattus norvegicus [36] = test: The Compound was tested in vivo for DOPA accumulation in hemispheres (cortex) against reserpine-pretreated rats;I= inactive at the highest dose (12.5); format: functional, organism-based
Rattus norvegicus [37] = test: In vivo for 5-HTP accumulation in hemispheres (cortex) against reserpine-pretreated rats.; format: functional
D(3) dopamine receptor [38] = target: T3, D(3) dopamine receptor; test: Compound was tested for binding affinity against Dopamine receptor D3 expressed in CHO-K1 cells, using [3H]spiperone as the radioligand; I= inactive at the highest dose tested (12.5).; format: cell-based
Rattus norvegicus [39] = species on record: Rattus norvegicus; test: Compound was tested for binding affinity against D2 receptor expressed in CHO-K1 cells, using [3H]U-86170 as the radioligand; I=inactive (less than 50% inhibition at 1 uM).
Rattus norvegicus [40] = species on record: Rattus norvegicus; test: Compound was tested for binding affinity against D3 receptor expressed in CHO-K1 cells, using [3H]spiperone as the radioligand;I= inactive (less than 50% inhibition at 1 uM).
Rattus norvegicus [41] = test: The Compound was tested in vivo for DOPA accumulation in limbic system against reserpine-pretreated rats; inactive at the highest dose tested (12.5).; format: functional, organism-based
Rattus norvegicus [42] = test: The Compound was tested in vivo for DOPA accumulation in limbic system against reserpine-pretreated rats;I= inactive at the highest dose tested (12.5).; format: functional, organism-based
Rattus norvegicus [43] = test: Compound was tested in vivo for 5-HTP accumulation in limbic system against reserpine-pretreated rats;I= inactive at the highest dose tested (12.5).; format: functional, organism-based
Rattus norvegicus [44] = test: Compound was tested in vivo for DOPA accumulation in corpus striatum against reserpine-pretreated rats; I=inactive at the highest dose tested (12.5).; format: functional, organism-based
D(2) dopamine receptor [45] = target: T1, D(2) dopamine receptor; conditions: cho-k1
Rattus norvegicus [46] = test: compound was tested in vivo for 5-HTP accumulation in limbic system against reserpine-pretreated rats; P=significant partial reduction only at the highest dose tested (20).; format: functional, organism-based
D(3) dopamine receptor [47] = target: T3, D(3) dopamine receptor; test: The compound was tested in vitro for binding affinity against cloned mammalian Dopamine receptor D3 expressed in CHO cells by, using [3H]spiperone as radioligand; format: cell-based
Rattus norvegicus [48] = test: The compound was tested in vivo for DOPA accumulation in hemispheres (cortex) against reserpine-pretreated rats; I= inactive at the highest dose tested (20).; format: functional, organism-based
Rattus norvegicus [49] = test: The compound was tested in vivo for DOPA accumulation in limbic system against reserpine-pretreated rats; P=significant partial reduction only at the highest dose tested (20).; format: functional, organism-based
Rattus norvegicus [50] = test: compound was tested in vivo for 5-HTP accumulation in hemispheres (cortex) against reserpine-pretreated rats; P=significant partial reduction only at the highest dose tested (20).; format: functional, organism-based
Rattus norvegicus [51] = test: compound was tested in vivo for DOPA accumulation in corpus striatum against reserpine-pretreated rats; P=significant partial reduction only at the highest dose tested (20).; format: functional, organism-based
Rattus norvegicus [52] = test: compound was tested in vivo for 5-HTP accumulation in corpus striatum against reserpine-pretreated rats, activity expressed as ED50; P=significant partial reduction only at the highest dose tested (20).; format: functional, organism-based

Compound: CCCN(CCC)[C@@H]1CCc2ccc3[nH]c(C#N)cc3c2C1 [U-92,016-A]
Tmax [1]: 4 h
AUC (Rattus norvegicus [2]): 1817 pM ml-1
AUC (Rattus norvegicus [3]): 2857 pM ml-1
bioavailability [4]: 63%
ED50 (Rattus norvegicus [5]): inactive
Tmax [6]: 75 h
ED50 ratio [7]: 38

Compound: CCCN(CCC)C1CCc2ccc3[nH]cc(C#N)c3c2C1 (configuration not stated)
bioavailability [8]: 54%
Tmax [9]: 2 h
Ki (D(2) dopamine receptor [10]): 24 nM
Ki ([11]; read-out: Ki): 7.5 nM
AUC (Rattus norvegicus [12]): 1115 pM ml-1
Ki [13]: 0.4 nM
Ki (D(3) dopamine receptor [14]): 43 nM
T max [15]: 135 h
ED50 (Rattus norvegicus [16]): Weak activity
Ki ([17]; read-out: Ki): 38 nM
AUC (Rattus norvegicus [18]): 4849 pM ml-1

Compound: CCCN(CCC)C1CCc2ccc3cc[nH]c3c2C1 (configuration not stated)
ED50 (Rattus norvegicus [19]): inactive
ED50 (Rattus norvegicus [20]): Weak activity
ED50 (Rattus norvegicus [21]): Weak activity
ED50 (Rattus norvegicus [22]): inactive
ED50 (Rattus norvegicus [23]): Weak activity
ED50 (Rattus norvegicus [24]): inactive

Compound: CCCN(CCC)C1CCc2ccc3[nH]cc(C=O)c3c2C1 (configuration not stated)
ED50 (Rattus norvegicus [25]): 3.34 µmol/kg
Ki ([11]; read-out: Ki): 173 nM
ED50 (Rattus norvegicus [26]): inactive
Ki ([17]; read-out: Ki): 364 nM
Ki (D(3) dopamine receptor [27]): 70 nM

Compound: CCCN(CCC)C1CCc2cc(F)c3[nH]cc(C#N)c3c2C1 (configuration not stated)
Tmax [28]: 2 h
ED50 (Rattus norvegicus [29]): 2.1 µmol/kg
Ki ([11]; read-out: Ki): 8.6 nM
ED50 (Rattus norvegicus [30]): 0.52 µmol/kg
Ki [13]: 2.3 nM
ED50 (Rattus norvegicus [31]): 0.55 µmol/kg
Ki (D(2) dopamine receptor [32]): 72 nM
Tmax [33]: 33 h
AUC (Rattus norvegicus [3]): 48 pM ml-1
ED50 (Rattus norvegicus [34]): 0.43 µmol/kg
AUC (Rattus norvegicus [35]): 238 pM ml-1
Ki ([17]; read-out: Ki): 121 nM
Ki (D(3) dopamine receptor [27]): 63 nM
bioavailability [4]: 8.1%
ED50 (Rattus norvegicus [36]): inactive
ED50 (Rattus norvegicus [37]): 0.46 µmol/kg

Ki (D(3) dopamine receptor [38]): Not Active
Ki ([11]; cho-k1): Not Active
Ki [13]: 113 nM
Ki (D(2) dopamine receptor [45]): Not Active
Ki ([17]; cho-k1): Not Active
Compound: CCCN(CCC)C1CCc2ccc3[nH]cc(CN(C)C)c3c2C1 (configuration not stated)
Ki (Rattus norvegicus [39]): inactive
Ki (Rattus norvegicus [40]): inactive
ED50 (Rattus norvegicus [41]): inactive
ED50 (Rattus norvegicus [42]): inactive
ED50 (Rattus norvegicus [43]): inactive
ED50 (Rattus norvegicus [44]): inactive

Compound: CCCN(CCC)C1CCc2cc(F)c3c(c(C=O)cn3C)c2C1 (configuration not stated)
ED50 (Rattus norvegicus [46]): Weak activity
Ki (D(3) dopamine receptor [47]): 572 nM
Ki (D(2) dopamine receptor [10]): 1030 nM
Ki ([11]; read-out: Ki): 419 nM
ED50 (Rattus norvegicus [48]): inactive
ED50 (Rattus norvegicus [49]): Weak activity
Ki [13]: 28 nM
ED50 (Rattus norvegicus [50]): Weak activity
ED50 (Rattus norvegicus [51]): Weak activity
Ki ([17]; read-out: Ki): 618 nM
ED50 (Rattus norvegicus [52]): Weak activity
